From patent US20050054845A1, “Thymosin augmentation of genetic immunization” (Rhode Island Hospital, priority 2001, published 2005)
Ends that are not written are not given here.

Experiments:
SP2—NS5 cells = assay: Cytotoxicity (CTL) 51Cr-release assay after genetic immunization; type: in vivo, Balb/c mice; details: co-administration of 5 μg thymosin α1 i.p. twice/week with 50 μg pAp031NS5 DNA vs DNA alone; L/T ratios 1:10 and 1:100; 4-hour 51Cr-release; FIG. 4
Method: (§1) To enhance the cellular uptake of plasmid DNA, the quadriceps muscle of Balb/c mice was injected at multiple sites with a total of 100 μL of 0.25% hupivacaine. Four days later, the plasmid constructs were injected into the same region at five different sites in a final volume of 100 μL 0.9% NaCl. Two weeks later the mice were boosted in the opposite leg with plasmid DNA. The mice were killed ten days after the last immunization. There were three groups of mice each containing five animals. Group 1=mice immunized with 100 μg mock DNA; Group 2=mice immunized with 50 μg pAp031NS5 and 50 μg mock DNA; Group 3=mice immunized with 50 μg pAp031 NS5 and 50 μg mock DNA, and received 5 μg thymosin α1 i.p. twice/week. Animals were immunized three times two weeks apart, and studies were performed ten days after the final immunization.
Spleen cells from immunized mice were suspended in complete DMEM containing 10% FCS and 50 μmol/L 2-mercaptoethanol; the cells were then analyzed for cytotoxic activity 5 days after in vitro stimulation. […] Percent cytotoxicity was calculated as: [formula] […] Total release represents the radioactivity released after total lysis of target cells with 5% TritonX-100. […]
Spontaneous release represents the radioactivity present in medium derived from target cells only. […]

[1] = system: spleen cells stimulated with recombinant NS5; assay: T-cell proliferation assay after genetic immunization; type: in vivo, Balb/c mice; details: co-administration of 5 μg thymosin α1 i.p. twice/week with 50 μg pAp031NS5 DNA vs DNA alone; all three challenge concentrations; [3H]-thymidine incorporation; FIG. 3
Method: as §1
Mice were anesthetized with isoflurane (Aerrane, Anaquest, N.J.), blood was removed by retrobulbar puncture and spleen cells were harvested. Red blood cells were removed by incubation in […] NH4C1/0.17 mol/L Tris (pH 7.4) for 10 minutes at 37° C. […] The [^3H]-thymidine incorporation into DNA was measured after harvesting. […] Incorporation of radioactivity was corrected for background activity (Δ cpm). […]

[2] = in vivo; cited from earlier work

Substance: thymosin α1 (SDAAVDTSSEITTKDLKEKKEVVEEAEN; ends and bridges not checked; UniProt P06454 2-29, looked up) [α thymosin]
- increase of percent cytotoxicity (SP2—NS5 cells): ≥ 100%
- increase of CD4 proliferative response [1]: approximately 100%
- dose found to be safe for humans [2]: ≤ 16 mg/kg body weight/day
